Like-named read-outs stand apart in the source and are kept apart here.

The term TD50 denotes the dose at which the toxic effect under study appears in half of the subjects. A high value points to harm only at a large dose.

Data set [1] in a line: Rotorod Test for Toxicity. The settings on record: mouse, in vivo; mice; rotorod at 6 rpm, 10 min; at time of peak effect. As for the experimental part: The rotorod test is a standard method used in mice to access neurotoxicity and is described, for example, by Krall et al., Epilepsia 19, 409-428 (1978).
(§1) Compounds were tested for anticonvulsant activity and toxicity in mice by the following tests.
Rotorod Test for Toxicity
This test is used in mice to assess neurotoxicity. Mice are placed on the rotorod, which rotates at 6 rpm, and tested for maintenance of their equilibrium for 10 min. All mice are pre-tested before test substance is given. At the time of peak effect of the test substance, mice are put back on the rotorod for 10 min. Neurological deficit (toxicity) is indicated by the inability of the animal to maintain its equilibrium for 10 min. on this rotating rod.

Data set [2] concerns maximal electroshock seizures. The data set can be described thus: Maximal Electroshock Seizure Test. Format: in vivo, mice. The settings on record: for anti-MES activity: comparison of anticonvulsant profiles. As to the method: One recognized test which is frequently used for this purpose is to determine the capacity of the drug to modify the effects of maximal electric shock (MES) by inhibition of tonic hindlimb extension. See, for example, the test described by Swinyard and co-workers at J. Pharmacol. Exper. Therap. 106, 319-330 (1952).
as §1
Maximal Electroshock Seizure Test
At the time of peak effect of the test substance, a drop of 0.9% sodium chloride is applied to the eyes of each animal. Corneal electrodes are applied to the eyes, and an electrical stimulus of 50 mA is delivered for 0.2 sec. The animals are held by hand and released at the time of stimulation for observation of the seizure. Abolition of the hindleg tonic extension component is taken as the endpoint for this test.

Data set [3] has as its system pentylenetetrazol seizures. In words: Pentylenetetrazol Seizure Threshold Test. The settings on record: Mus musculus, mice. Format: in vivo. As to the method:
See, for example, Krall et al., Epilepsia 19, 409-428 (1978).
as §1
Pentylenetetrazol Seizure Threshold Test
The animals are placed in isolation cages and observed for the next 30 min. for the presence or absence of a seizure. A threshold convulsion is defined as one episode of clonic spasms that persists for at least a 5-sec period.

[4] abbreviates: read-out: ED50 against (clonic) seizures produced by 85 mg/kg pentylenetetrazol, 85 mg/kg pentylenetetrazol IP, clonic (threshold) seizures.

Turning to `CC(C)C1CCSC1=O` (stereo not drawn) [α-isopropyl-γ-thiobutyrolactone], in data set [1], the TD50 amounted to 278 mg/kg. Also, the ED50 in data set [2] (Mus musculus, read-out: ED50 against maximal electroshock seizures (MES)) stood at 240 mg/kg; in data set [3] (setting [4]), 137 mg/kg.
On to `CCCC(CCC)C(=O)O` [valproic acid], for which the anti-MES activity result in data set [2] is on record as “have anti-MES activity”.
Take `CCC1(C)CC(=O)NC1=O` (centres unmarked) [ethosuximide]: the anti-MES activity result in data set [2] is “do not”.
As to `CCC1(C)CCOC1=O` (stereo not drawn) [α-EMBL, α-ethyl-α-methyl-γ-butyrolactone], the TD50 in data set [1] was about 350 mg/kg. In data set [2], the anti-MES activity entry is given as “do not”. The “protection against maximal electroshock seizures” value in data set [2] (mice, at doses up to 350 mg/kg) is given as “No protection”. Besides, the ED50 in data set [3] (setting [4]) was 226 mg/kg; in data set [3] (read-out: ED50 against clonic seizures produced by 100 mg/kg pentylenetetrazol, 100 mg/kg pentylenetetrazol IP, clonic seizures) it was 304 mg/kg; in data set [3] (read-out: ED50 against tonic seizures produced by 100 mg/kg pentylenetetrazol, 100 mg/kg pentylenetetrazol IP, tonic seizures), 250 mg/kg.
